Data taken from ChEMBL document CHEMBL4680265, “Anti-tubulin agent vinorelbine inhibits metastasis of cancer cells by regulating epithelial-mesenchymal transition” (Eur J Med Chem, 2020).
Activity calls are given as the source filed them.

Assays:
HCT-116 [1] = test: Inhibition of epithelial-mesenchymal transition in human HCT-116 cells assessed as downregulation of Snail-1 by Western blot analysis; assay type: functional, cell-based; details: dose 0.01-1 µM
HepG2 [2] = test: Antimigratory activity against human HepG2 cells assessed as reduction in migration at 0.1 nM measured after 96 hrs by scratch wound healing based inverted microscopic analysis relative to control; assay type: functional
HCT-116 [3] = test: Induction of cell cycle arrest in human HCT-116 cells assessed as increase in G2/M phase accumulation at 0.01 to 1 uM incubated for 24 hrs by propidium iodide staining based flow cytometry analysis; assay type: functional; details: dose 0.01-1 µM
HCT-116 [4] = test: Antimigratory activity against human HCT-116 cells assessed as reduction in migration at 1 nM measured after 96 hrs by scratch wound healing based inverted microscopic analysis relative to control; assay type: functional
HCT-116 [5] = test: Inhibition of epithelial-mesenchymal transition in human HCT-116 cells assessed as downregulation of MMP-9 by Western blot analysis; assay type: functional, cell-based; details: dose 0.01-1 µM
NCI-H1975 [6] = test: Induction of apoptosis in human NCI-H1975 cells assessed as decrease in Bcl-xl expression at 1 to 100 nM incubated for 48 hrs by Western blot analysis; assay type: functional, cell-based; details: dose 1-100 nM
NCI-H1975 [7] = test: Inhibition of epithelial-mesenchymal transition in human NCI-H1975 cells assessed as downregulation of MMP-2 by Western blot analysis; assay type: functional, cell-based; details: dose 1-100 nM
HepG2 [8] = test: Inhibition of epithelial-mesenchymal transition in human HepG2 cells assessed as decrease in N-cadherin expression at 0.1 to 10 uM by Western blot analysis; assay type: functional, cell-based; details: dose 0.1-10 µM
HepG2 [9] = test: Cytotoxicity against human HepG2 cells assessed as reduction in cell viability incubated for 48 hrs by MTT assay; assay type: functional, cell-based; details: HepG2, 48 h
HepG2 [10] = test: Induction of cell cycle arrest in human HepG2 cells assessed as decrease in cyclin B1 level at 0.1 to 10 uM incubated for 24 hrs by Western blot analysis; assay type: functional, cell-based; details: dose 0.1-10 µM
HepG2 [11] = test: Inhibition of epithelial-mesenchymal transition in human HepG2 cells assessed as […] in E-cadherin expression at 0.1 to 10 uM by Western blot analysis; assay type: functional, cell-based; details: dose 0.1-10 µM
NCI-H1975 [12] = test: Antimigratory activity against human NCI-H1975 cells assessed as reduction in migration at 10 nM measured after 96 hrs by scratch wound healing based inverted microscopic analysis relative to control; assay type: functional
NCI-H1975 [13] = test: Induction of cell cycle arrest in human NCI-H1975 cells assessed as increase in G2/M phase accumulation at 10 nM incubated for 24 hrs by propidium iodide staining based flow cytometry analysis relative to control; assay type: functional
HepG2 [14] = test: Induction of apoptosis in human HepG2 cells assessed as decrease in Bcl-xl expression at 0.1 to 10 uM incubated for 48 hrs by Western blot analysis; assay type: functional, cell-based; details: dose 0.1-10 µM
HCT-116 [15] = test: Inhibition of epithelial-mesenchymal transition in human HCT-116 cells assessed as decrease in Vimentin expression at 0.01 to 1 uM by Western blot analysis; assay type: functional, cell-based; details: dose 0.01-1 µM
NCI-H1975 [16] = test: Inhibition of epithelial-mesenchymal transition in human NCI-H1975 cells assessed as downregulation of Snail-1 by Western blot analysis; assay type: functional, cell-based; details: dose 1-100 nM
HepG2 [17] = test: Inhibition of epithelial-mesenchymal transition in human HepG2 cells assessed as downregulation of Snail-1 by Western blot analysis; assay type: functional, cell-based; details: dose 0.1-10 µM
NCI-H1975 [18] = test: Induction of cell cycle arrest in human NCI-H1975 cells assessed as decrease in cyclin B1 level at 1 to 100 nM incubated for 24 hrs by Western blot analysis; assay type: functional, cell-based; details: dose 1-100 nM
HepG2 [19] = test: Inhibition of epithelial-mesenchymal transition in human HepG2 cells assessed as decrease in Vimentin expression at 0.1 to 10 uM by Western blot analysis; assay type: functional, cell-based; details: dose 0.1-10 µM
HCT-116 [20] = test: Induction of apoptosis in human HCT-116 cells assessed as increase in Bax expression at 0.01 to 1 uM incubated for 48 hrs by Western blot analysis; assay type: functional, cell-based; details: dose 0.01-1 µM
HCT-116 [21] = test: Inhibition of epithelial-mesenchymal transition in human HCT-116 cells assessed as downregulation of MMP-2 by Western blot analysis; assay type: functional, cell-based; details: dose 0.01-1 µM
HCT-116 [22] = test: Antimigratory activity against human HCT-116 cells assessed as reduction in migration at 5 nM measured after 96 hrs by scratch wound healing based inverted microscopic analysis relative to control; assay type: functional
NCI-H1975 [23] = test: Cytotoxicity against human NCI-H1975 cells assessed as effect on cell morphology incubated for 48 hrs by DAPI staining based fluorescence microscopy; assay type: functional; details: dose 1-100 nM
HCT-116 [24] = test: Induction of apoptosis in human HCT-116 cells assessed as decrease in Bcl-xl expression at 0.01 to 1 uM incubated for 48 hrs by Western blot analysis; assay type: functional, cell-based; details: dose 0.01-1 µM
NCI-H1975 [25] = test: Antiinvasive activity against human NCI-H1975 cells assessed as reduction in invasion at 1 to 10 nM measured after 48 hrs by DAPI staining based transwell assay; assay type: functional, cell-based; details: dose 1-10 nM
NCI-H1975 [26] = test: Inhibition of epithelial-mesenchymal transition in human NCI-H1975 cells assessed as increase in E-cadherin expression at 1 to 100 nM by Western blot analysis; assay type: functional, cell-based; details: dose 1-100 nM
HCT-116 [27] = test: Cytotoxicity against human HCT-116 cells assessed as effect on cell morphology incubated for 48 hrs by DAPI staining based fluorescence microscopy; assay type: functional; details: dose 0.01-1 µM
HCT-116 [28] = test: Inhibition of colony formation in human HCT-116 cells at 0.01 to 1 uM incubated for 3 to 4 days by crystal violet staining based assay; assay type: functional, cell-based; details: dose 0.01-1 µM, time 3-4 day
HCT-116 [29] = test: Induction of apoptosis in human HCT-116 cells assessed as increase in late apoptotic cells at 0.01 to 1 uM incubated for 48 hrs by annexin V-FITC and PI staining based flow cytometry analysis; assay type: functional, cell-based; details: dose 0.01-1 µM
NCI-H1975 [30] = test: Cytotoxicity against human NCI-H1975 cells assessed as reduction in cell viability incubated for 48 hrs by MTT assay; assay type: functional, cell-based; details: NCI-H1975, 48 h

CCC1=C[C@@H]2CN(C1)Cc1c([nH]c3ccccc13)[C@@](C(=O)OC)(c1cc3c(cc1OC)N(C)[C@H]1[C@@](O)(C(=O)OC)[C@H](OC(C)=O)[C@]4(CC)C=CCN5CC[C@]31[C@@H]54)C2 [VINORELBINE]
active: inhibition (HCT-116 [1]) Dose-dependent effect | Activity (HCT-116 [3]) | inhibition (HCT-116 [5]) Dose-dependent effect | Activity (NCI-H1975 [6]) | inhibition (NCI-H1975 [7]) Dose-dependent effect | inhibition (HepG2 [8]) | Activity (HepG2 [10]) | Activity (HepG2 [14]) | inhibition (NCI-H1975 [16]) Dose-dependent effect | inhibition (HepG2 [17]) Dose-dependent effect | Activity (NCI-H1975 [18]) | Activity (HCT-116 [20]) | inhibition (HCT-116 [21]) Dose-dependent effect | Activity (NCI-H1975 [23]) Dose-dependent effect | Activity (HCT-116 [24]) | inhibition (NCI-H1975 [25]) | inhibition (NCI-H1975 [26]) | Activity (HCT-116 [27]) Dose-dependent effect | inhibition (HCT-116 [28]) | Activity (HCT-116 [29])
34.31%: Activity (NCI-H1975 [13])
inactive: inhibition (HepG2 [11]) | inhibition (HCT-116 [15]) | inhibition (HepG2 [19])
110 nM: IC50 (HepG2 [9])
8 nM: IC50 (NCI-H1975 [30])
13%: inhibition at 0.001 µM (HCT-116 [4])
28.5%: inhibition at 0.005 µM (HCT-116 [22])
70.5%: inhibition at 0.01 µM (NCI-H1975 [12])
11.7%: inhibition at 0.0001 µM (HepG2 [2])
